Assay results reported in patent US20140161720A1, “TREATMENT OF ANGIOGENIC- OR VASCULAR-ASSOCIATED DISEASES” (THE GENERAL HOSPITAL CORPORATION, priority 2011, published 2014).
“Also recorded” adds a separate entry of the source.

What was measured:
[1] = Toxicity of intraperitoneal DAL in SCID mice; type: in vivo; settings: intraperitoneal doses of up to 100 mg/kg
Experimental: A cell-based readout system was used for compound selection. For the cell-based screening, an optimal cell density of 10,000 breast cancer MDA-MB-231 cells/well was selected to produce the most prominent signal. The plated cells were incubated with each library compound, washed with PBS, and the Cell Titer-Glo (Promega) reagent was used to detect the number of cells remaining attached in each well. This ATP-based detection has a linear relationship between the luminescent signal and the number of cells per well. Of the 50,000 compounds screened, 86 library compounds (0.172% of screened compounds) were selected at 1.67 μM concentration for the second screening step. […] As a further test of toxicity, DAL was injected intraperitoneally at 100 mg/kg in SCID mice and signs of toxicity including cachexia, ruffled fur, diarrhea, anorexia, skin ulceration, and toxic death were monitored.
A screening strategy was developed to identify potential agents that target adhesion of endothelial cells or cancer cells to their substrate. […] The initial screening step quantified the number of cells remaining attached to their wells following incubation with each compound and subsequent washing steps. […] The agents that affect cell adhesion can be monitored through remodeling of actin filaments. […] Changes in actin assembly and cell shape after treatment with 12 compounds were determined. […]

[2] = Pharmacokinetics after intraperitoneal administration; type: in vivo; settings: after i.p. dosing, 100% DMSO formulation, male CD-1 mice
Source text: FIG. 8 is a graph showing pharmacokinetic parameters after intraperitoneal administration of DAL.

[3] = system: Tg(fli1:EGFP)^y1 zebrafish embryos; assay: Vascular development in zebrafish embryos; type: in vivo
Experimental: Zebrafish were raised in accordance with the established protocols (19-20). The age of embryos is indicated by the hours after fertilization and days after fertilization for all experimental data shown herein. For the screening study, zebrafish embryos were incubated with the selected compounds at a concentration of 5-10 μM. Treated embryos were then examined under a 100× PlanNeofluor objective mounted on a Nikon TE-200 epifluorescence microscope. Images of embryos bearing GFP-positive cells were captured with a Zeiss stereomicroscope.
To elucidate the potential impact of DAL on the process of vascular network formation, its effects in zebrafish embryos at different stages of development were assessed. To visualize vessel defects, transgenic fish expressing EGFP in endothelial cells (Tg(fli1:EGFP)^y1) were used (19-20). This model expresses EGFP in blood vessel ECs throughout normal development and during fin regeneration (21). The effects of DAL on normal vascular development in zebrafish embryos were first characterized. In control embryos, developing vessels migrated from the lateral plate mesoderm to the midline, where they coalesced into a vascular cord. These endothelial clusters subsequently established the pattern of the dorsal aorta and posterior cardinal vein. Intersomitic vessels sprouted at designated branch sites in control embryos after dorsal aorta formation.

[4] = biological target: T1, Rac1 (Homo sapiens, UniProt P63000); assay: Rac1 activation pull-down assay (PAK-PBD) in HUVECs; type: cell-based; settings: various concentrations 30 minutes, VEGF stimulated
T1 construct: endogenous in cells; host or cells: HUVEC
Experimental: Rac1 and cdc42 activities were measured with a Rac1 (BK035) activation assay biochem kit (Cytoskeleton) according to the manufacturer protocol. In brief, human umbilical vein endothelial cells (HUVECs) were bovine brain extract-starved for 12 hours in 1% FBS-EGM (Lonza) and pretreated with various concentrations of DAL for 30 minutes at 37° C. The HUVECs were then stimulated with VEGF at […] for 15 minutes at 37° C. After stimulation, the cells were immediately incubated on ice, washed twice with PBS, and lysed with lysis buffer. The lysates were pre-cleared and added with 15 μl of PAK-PBD beads for pull-down of activated Rac1 or cdc42. After rocking at 4° C. for 1 hour, the beads were washed once and boiled at 100° C. for 2 minutes. The protein lysates were then resolved in a 8-16% gradient gel (Invitrogen) and transferred to a PVDF membrane. Primary antibodies (anti-Rac1, 1:1000, cytoskeleton or anti-cdc42, 1:1000, cell signaling) were added to bind to the protein overnight at 4° C., followed by incubation with HRP-conjugated secondary antibodies. Protein activity was measured by the standard ECL method (Amersham).
Without wishing to be bound by theory, DAL brings about its antivascular effects by destabilizing cell adhesion through the actin cytoskeleton. […] Therefore, potential targets of DAL in signaling pathways involved in actin remodeling were evaluated. […]

CC1(C)C=CC2=C(O1)C(=O)c1ccccc1C2=O [DAL, dehydro-alpha-lapachone]
signs of toxicity (cachexia, ruffled fur, diarrhea, anorexia, skin ulceration, toxic death) [1]: low toxicity; also recorded: no signs of toxicity
half-life in plasma [2]: 1.7 h
complexity of the arterial network ([3]; zebrafish embryos): profound reduction
vessel branch formation / sprouting of intersomitic vessels ([3]; zebrafish embryos 48 hours after fertilization, DAL 5 μM): failed to occur; also recorded: failed to form vessel branches
Rac1 activity [4]: decreased Rac1 activity in a concentration-dependent manner
